Tests used:
Format in all cases: physicochemical
Solubility in PGMEA = conditions: concentration when PGMEA was added dropwise to 0.1 g of the compound under stirring and was dissolved completely
Protocol: (§1) That the obtained solid was an intended product was confirmed by ^1H-NMR and IR. Furthermore, the solubility of the obtained compound was measured. The solubility was a concentration when PGMEA was added dropwise to 0.1 g of the compound under stirring and was dissolved completely. The results thereof are shown in [Table 1] to [Table 4].
as §1, with “added” for “added dropwise”, “while” for “under”, “4]” for “4].”

[1] = Evaluation of absorption wavelength property in CHCl3 solution; parameters: ε: unit not given here; conditions: for ε: molar absorption coefficient
Description: The absorption wavelength properties of Compounds Nos. 1 to 7, 16, 26, 43, 52 to 62, 65, 66, 69, 70 and 94 to 102 and Comparative Compounds Nos. 1 and 2 obtained above were each evaluated in a CHCl3 solution. The results are shown in [Table 5].

[2] = Evaluation of heat resistance by TG-DTA; conditions: temperature at 10% weight loss
Protocol: Compounds Nos. 1 to 7, 16, 26, 43, 52 to 62, 65, 66, 69, 70 and 94 to 102 and Comparative Compounds Nos. 1 and 2 obtained above were analyzed by TG-DTA, and the melting points and temperatures at 10% weight loss were measured. The results are shown in [Table 6].

[3] = Heat resistance of exposed coating film of coloring alkali-developable photosensitive composition; conditions: for Relative intensity After exposure: coating film after exposure (150 mJ/cm^2), before heating; for λmax: coating film of composition containing the compound, on glass; for Relative intensity 230° C., 30 min: exposed coating film after 230° C.
Description: 30.33 g of ACA Z250 (manufactured by Daicel Cytec Company Ltd.) and 11.04 g of ARONIX M-450 (manufactured by Toagosei Co., Ltd.) as the component (B), 1.93 g of IRGACURE 907 (manufactured by BASF) as the component (C), 36.60 g of PGMEA and 20.08 g of cyclohexanone as the component (E), as well as 0.01 g of FZ2122 (manufactured by Dow Corning Toray Co., Ltd.) as other component were mixed and stirred until insoluble components were diminished to give Alkali-developable photosensitive composition No. 1.
1.90 g of dimethylacetamide was added to 0.10 g of Compound No. 1 obtained above as the component (A) and dissolved under stirring.
5.0 g of Alkali-developable photosensitive composition No. 1 obtained in Step 1 and 1.0 g of Dye liquid No. 1 obtained in Step 2 were mixed and stirred to homogeneous to give Coloring alkali-developable photosensitive composition No. 1 of the present invention.
Coloring alkali-developable photosensitive compositions Nos. 2 to 20 were obtained in a similar manner to that in Example 2-1, except that Compound No. 1 as the component (A) in Step 2 of Example 2-1 was changed to Compound No. 2, 3, 5, 6, 16, 53, 56, 57, 59, 60, 65, 66, 94 or 96 to 101 obtained above.
Comparative coloring alkali-developable photosensitive compositions Nos. 1 and 2 were obtained in a similar manner to that in Example 2-1, except that Compound No. 1 as the component (A) in Step 2 of Example 2-1 was changed to Comparative Compound No. 1 or 2.
The coloring alkali-developable photosensitive compositions obtained in Example 2 were each applied to a glass basal plate under a condition of 410 rpm×7 sec and dried (90° C., 90 sec) on a hot plate. The obtained coating film was exposed (150 mJ/cm^2) by using an ultrahigh pressure mercury lamp. The heat resistance of the exposed coating film was investigated under conditions of 180° C.×60 min and 230° C.×30 min. The results are shown in [Table 7].
Using the coloring alkali-developable photosensitive compositions obtained in Examples 2-2 to 2-20 and Comparative Examples 2-1 and 2-2, heat resistance was investigated in a similar manner to that in Evaluation Example 3. The results are shown in [Table 7].

| SMILES | Solubility (PGMEA) (Solubility in PGMEA) | λmax [1] [nm] | ε [1] | 10% weight loss [2] [°C] | Relative intensity After exposure [3] | λmax [3] [nm] | Relative intensity 230° C., 30 min [3] |
| --- | --- | --- | --- | --- | --- | --- | --- |
| N#C/C(=C\c1ccc(N2CCOCC2)cc1)C(=O)OCCCCCCCOC(=O)/C(C#N)=C/c1ccc(N2CCOCC2)cc1 [Compound No. 60] | 1.0 or less wt % | 405 | 71700 | 350 | 100 | 408 | 73.8 |
| N#C/C(=C\c1ccc(N(c2ccccc2)c2ccccc2)cc1)C(=O)OCCCCCCCOC(=O)/C(C#N)=C/c1ccc(N(c2ccccc2)c2ccccc2)cc1 [Compound No. 65] | 5.3 wt % | 435 | 65300 | 354 | 100 | 430 | 99.3 |
| C=C(C)C(=O)OCCN(C)c1ccc(/C=C(\C#N)C(=O)OCCCCCCOC(=O)/C(C#N)=C/c2ccc(N(C)CCOC(=O)C(=C)C)cc2)cc1 [Compound No. 66] | 1.0 or less wt % | 419 | 94100 | 354 | 100 | 419 | 99.2 |
| CCN(CC)c1ccc(/C=C(\C#N)C(=O)OCC(C)(COC(=O)/C(C#N)=C/c2ccc(N(CC)CC)cc2)COC(=O)/C(C#N)=C/c2ccc(N(c3ccccc3)c3ccccc3)cc2)cc1 (centres unmarked) [Compound No. 96] | 10.0 wt % | 437 | 138000 | 347 | 100 | 433 | 99.5 |
| CN(CCO)c1ccc(/C=C(\C#N)C(=O)OCC(C)(COC(=O)/C(C#N)=C/c2ccc(N(C)CCO)cc2)COC(=O)/C(C#N)=C/c2ccc(N(C)CCO)cc2)cc1 [Compound No. 98] | 1.0 or less wt % | 428 | 119000 | 288 | 100 | 431 | 99.5 |
| CCN(CC)c1ccc(/C=C(\C#N)C(=O)OCC(C)(COC(=O)/C(C#N)=C/c2ccc(N(C)CCO)cc2)COC(=O)/C(C#N)=C/c2ccc(N(C)CCO)cc2)cc1 [Compound No. 99] | 1.0 or less wt % | 431 | 130000 | 320 | 100 | 433 | 99.6 |

Continued, values first:

| Solubility (PGMEA) (Solubility in PGMEA) | λmax [1] [nm] | ε [1] | 10% weight loss [2] [°C] | Relative intensity After exposure [3] | λmax [3] [nm] | Relative intensity 230° C., 30 min [3] | SMILES |
| --- | --- | --- | --- | --- | --- | --- | --- |
| 1.0 or less wt % | 437 | 152000 | 339 | 100 | 430 | 99.9 | CCN(CC)c1ccc(/C=C(\C#N)C(=O)OCC(CC)(COC(=O)/C(C#N)=C/c2ccc(N(CC)CC)cc2)COC(=O)/C(C#N)=C/c2ccc(N(CC)CC)cc2)cc1 [Compound No. 57] |
| 1.0 or less wt % | 420 | 89900 | 295 | 100 | 431 | 99.7 | CN(CCO)c1ccc(/C=C(\C#N)C(=O)OCCCCCCOC(=O)/C(C#N)=C/c2ccc(N(C)CCO)cc2)cc1 [Compound No. 59] |
| 10.0 wt % | 417 | 103000 | 334 | 100 | 417 | 98.2 | CCN(CC)c1ccc(/C=C(\C#N)C(=O)OCC(C)(COC(=O)/C(C#N)=C/c2ccc(N3CCOCC3)cc2)COC(=O)/C(C#N)=C/c2ccc(N3CCOCC3)cc2)cc1 [Compound No. 97] |
| 6.0 wt % | 434 | 147000 | 330 | 100 | 436 | 99.7 | CCN(CC)c1ccc(/C=C(\C#N)C(=O)OCC(C)(COC(=O)/C(C#N)=C/c2ccc(N(C)CCO)cc2)COC(=O)/C(C#N)=C/c2ccc(N(CC)CC)cc2)cc1 (centres unmarked) [Compound No. 100] |
| 10.0 wt % | 425 | 153000 | 336 | 100 | 426 | 99.4 | CC(COC(=O)/C(C#N)=C/c1ccc(N(Cc2ccccc2)Cc2ccccc2)cc1)(COC(=O)/C(C#N)=C/c1ccc(N(Cc2ccccc2)Cc2ccccc2)cc1)COC(=O)/C(C#N)=C/c1ccc(N(Cc2ccccc2)Cc2ccccc2)cc1 [Compound No. 101] |
